The CheMixHub ionic liquid set

Test: xn = mol fraction of the nth substance listed

CCCCCCCC[n+]1ccc2ccccc2c1.O=S(=O)([N-]S(=O)(=O)C(F)(F)F)C(F)(F)F + CCCCO
101 kPa
Settings	viscosity [mPa·s]
298.15 K, x2 = 0.3134	122.9
298.15 K, x2 = 0.5032	55.19
308.15 K, x2 = 0.3134	71.3
308.15 K, x2 = 0.6915	15.21
318.15 K, x2 = 0.7937	6.33
328.15 K, x2 = 0.1708	45.14
338.15 K, x2 = 0.3134	21.01
338.15 K, x2 = 0.6915	5.91
338.15 K, x2 = 0.7937	3.66

CC(=O)CCC(=O)O + CCCC[N+](CCCC)(CCCC)CCCC.[Cl-]
Settings	electrical conductivity [S/m]	viscosity [mPa·s]
293.15 K, 101.33 kPa, x2 = 0.3333	–	609
298.15 K, 101.33 kPa, x2 = 0.3333	–	405
303.15 K, 101.33 kPa, x2 = 0.3333	–	276
308.15 K, 101.33 kPa, x2 = 0.3333	–	195
313.15 K, 101.33 kPa, x2 = 0.3333	–	141
318.15 K, 101.33 kPa, x2 = 0.3333	–	105
323.15 K, 101.33 kPa, x2 = 0.3333	–	79
328.15 K, 101.33 kPa, x2 = 0.3333	–	61
333.15 K, 101 kPa, x1 = 0.75	0.177	17.47
333.15 K, 101.33 kPa, x2 = 0.3333	–	48
338.15 K, 101.33 kPa, x2 = 0.3333	–	39
343.15 K, 101 kPa, x1 = 0.75	0.238	–
343.15 K, 101.33 kPa, x2 = 0.3333	–	32
348.15 K, 101.33 kPa, x2 = 0.3333	–	26
353.15 K, 101.33 kPa, x2 = 0.3333	–	22

O=C(O)CC(O)C(=O)O (stereo not given) + CCCC[N+](CCCC)(CCCC)CCCC.[Cl-] + O
100 kPa, x2 = 0.1428, x1 = 0.1428
Settings	electrical conductivity [S/m]	viscosity [mPa·s]
293.15 K	0.0722	283
303.15 K	0.113	191
313.15 K	0.173	133
323.15 K	0.257	94
333.15 K	0.373	68.1

NCCNCCN + CCCC[n+]1ccn(C)c1.F[B-](F)(F)F
101.3 kPa
Settings	viscosity [mPa·s]
298.15 K, x2 = 0	5.52
298.15 K, x2 = 0.3995	23.66
298.15 K, x2 = 0.5905	40.1
303.15 K, x2 = 0.2998	14.59
303.15 K, x2 = 0.4992	26.4
303.15 K, x2 = 0.5905	33.6
303.15 K, x2 = 0.6974	44.2
303.15 K, x2 = 0.8948	69.1
308.15 K, x2 = 0.2998	12.47
313.15 K, x2 = 0.1986	7.86
313.15 K, x2 = 0.3995	14.5
313.15 K, x2 = 0.4992	19.06
313.15 K, x2 = 0.6974	30.9
318.15 K, x2 = 0.051	3.95
323.15 K, x2 = 0.2998	8.65
323.15 K, x2 = 0.3995	11.33
323.15 K, x2 = 0.5905	18.26
328.15 K, x2 = 0.2998	7.68
328.15 K, x2 = 0.3995	9.9
328.15 K, x2 = 0.4992	12.63
328.15 K, x2 = 0.6974	19.4
333.15 K, x2 = 0.1986	4.89
333.15 K, x2 = 0.2998	6.68
333.15 K, x2 = 0.4992	11.19
333.15 K, x2 = 0.6974	17.57
333.15 K, x2 = 0.9496	24.5

O=S(=O)([O-])C(F)(F)F.[Li+] + CCCC[n+]1ccn(C)c1.N#C[N-]C#N
electrical conductivity [S/m], 101 kPa
Settings	x2 = 0.8612	x2 = 0.8907	x2 = 0.9197	x2 = 0.9504	x2 = 0.9799
288.15 K	0.236	–	0.387	0.489	0.591
298.15 K	0.399	0.521	0.625	0.776	0.91
333.15 K	1.4	1.72	1.91	2.25	2.55

[Br-].[Li+] + CCCC[n+]1ccn(C)c1.N#C[S-] + CN1CCCC1=O
298.15 K, 101 kPa
Settings	viscosity [mPa·s]
x2 = 0, x1 = 0.02626	2.359
x2 = 0, x1 = 0.05114	3.124
x2 = 0, x1 = 0.07535	4.344

CCCCOC(C)=O + CCCC[n+]1ccn(C)c1.O=S(=O)([N-]S(=O)(=O)C(F)(F)F)C(F)(F)F
Settings	electrical conductivity, x1 = 0.8928 [S/m]	electrical conductivity, x1 = 0.9456 [S/m]	viscosity, x1 = 0.313 [mPa·s]	viscosity, x1 = 0.8928 [mPa·s]	viscosity, x1 = 0.9456 [mPa·s]
298.15 K, 100 kPa	0.373	0.163	–	1.47	1.092
318.15 K, 100.7 kPa	–	–	10	–	–

N[C@@H](CO)C(=O)O + CCCC[n+]1ccn(C)c1.[Br-] + O
viscosity [mPa·s], 101.3 kPa
Settings	x1 = 0.0003603, x2 = 0	x1 = 0.0007203, x2 = 0	x1 = 0.001078, x2 = 0	x1 = 0.00144, x2 = 0	x1 = 0.001781, x2 = 0	x1 = 0.002158, x2 = 0	x1 = 0.002516, x2 = 0
293.15 K	1.007	1.012	1.018	1.023	1.028	1.033	1.039
298.15 K	0.897	0.902	0.907	0.911	0.916	0.92	0.925
303.15 K	0.804	0.809	0.813	0.818	0.822	0.827	0.831
308.15 K	0.727	0.73	0.735	0.739	0.744	0.748	0.753
313.15 K	0.661	0.664	0.668	0.673	0.677	0.682	0.686

Oc1cccnc1 + CCCC[n+]1ccn(C)c1.[Cl-]
Settings	viscosity [mPa·s]
293.15 K, 100 kPa, x1 = 0.333	179.1

II + CCCC[n+]1ccn(C)c1.[I-]
Settings	electrical conductivity [S/m]
298 K, 101.3 kPa, x2 = 0.333	3.07

CC[N+](C)(CC)CCOC.F[B-](F)(F)F + CCCC[n+]1ccn(C)c1C.F[B-](F)(F)F
100 kPa
Settings	electrical conductivity [S/m]
313.15 K, x1 = 0.4	0.289
313.15 K, x1 = 0.7	0.302
318.15 K, x1 = 0.2	0.318
318.15 K, x1 = 0.4	0.361
318.15 K, x1 = 0.5	0.369
318.15 K, x1 = 0.8	0.41
318.15 K, x1 = 1	0.437
328.15 K, x1 = 0.1	0.492
328.15 K, x1 = 0.2	0.502
328.15 K, x1 = 0.5	0.555
328.15 K, x1 = 0.9	0.682
333.15 K, x1 = 0.5	0.685
338.15 K, x1 = 0.4	0.772
343.15 K, x1 = 0.4	0.913
348.15 K, x1 = 0.6	1.14
353.15 K, x1 = 0.2	1.18
353.15 K, x1 = 0.3	1.21
353.15 K, x1 = 0.4	1.24
353.15 K, x1 = 0.5	1.27
353.15 K, x1 = 0.7	1.38
353.15 K, x1 = 1	1.62
358.15 K, x1 = 0.3	1.39
358.15 K, x1 = 0.4	1.42
358.15 K, x1 = 0.8	1.61
363.15 K, x1 = 0.5	1.67
363.15 K, x1 = 1	2.1

CCC[N+]1(C)CCCCC1.O=S(=O)([N-]S(=O)(=O)C(F)(F)F)C(F)(F)F + CCC[N+](C)(C)C.O=S(=O)([N-]S(=O)(=O)C(F)(F)F)C(F)(F)F
101.3 kPa, x2 = 0
Settings	viscosity [mPa·s]
293.15 K	199
298.15 K	147
303.15 K	112
313.15 K	69
338.15 K	26.6
343.15 K	22.9

CC(=O)[O-].Cn1cc[n+](C)c1 + CCO
293.15 K, 101.3 kPa
Settings	electrical conductivity [S/m]
x2 = 0	0.275
x2 = 0.0694	0.335
x2 = 0.1341	0.401
x2 = 0.2695	0.559
x2 = 0.4097	0.873
x2 = 0.5071	1.197
x2 = 0.6815	1.821
x2 = 0.7393	1.903
x2 = 0.7685	1.86
x2 = 0.7896	1.683
x2 = 0.8843	0.86
x2 = 0.9267	0.491
x2 = 0.9487	0.302
x2 = 0.9595	0.213
x2 = 0.9709	0.131

CC[n+]1ccn(C)c1.[I-] + CCO
Settings	electrical conductivity [S/m]
298.15 K, 100 kPa, x1 = 0.4385	2.22

CC[N+](C)(CC)CCOC.F[B-](F)(F)F + CC[N+](C)(CC)CCOC.O=S(=O)([N-]S(=O)(=O)C(F)(F)F)C(F)(F)F
100 kPa
Settings	electrical conductivity [S/m]
293.15 K, x2 = 0.1	0.112
298.15 K, x2 = 0.3	0.19
298.15 K, x2 = 0.7	0.227
298.15 K, x2 = 0.9	0.267
303.15 K, x2 = 0.9	0.341
308.15 K, x2 = 0.3	0.325
308.15 K, x2 = 0.5	0.356
313.15 K, x2 = 0.2	0.388
313.15 K, x2 = 0.3	0.409
313.15 K, x2 = 0.8	0.495
318.15 K, x2 = 0.4	0.525
318.15 K, x2 = 0.7	0.573
323.15 K, x2 = 0.2	0.595
323.15 K, x2 = 0.3	0.612
328.15 K, x2 = 0.2	0.722
328.15 K, x2 = 0.6	0.806
333.15 K, x2 = 0.1	0.892
333.15 K, x2 = 0.5	0.911
333.15 K, x2 = 0.7	0.948
338.15 K, x2 = 0.7	1.1
343.15 K, x2 = 0.2	1.19
343.15 K, x2 = 0.3	1.19
343.15 K, x2 = 0.8	1.25

CC1(C)CC(O)CC(C)(C)N1[O] + CC[N+](CC)(CC)CC.[Cl-] + O
323.15 K, 100 kPa, frequency 0.001 MHz
Settings	electrical conductivity [S/m]
x1 = 0.091, x2 = 0.182	1.2
x1 = 0.167, x2 = 0.167	0.61
x1 = 0.2, x2 = 0	0.019
x1 = 0.286, x2 = 0.143	0.16
